PMC3165084 (Leukemia, 2011)
Where “and” joins values, the source holds several entries; their conditions need not be identical. Identical values can stand only once.

Experiments:
[1] = Plasma pharmacokinetics of tipifarnib, LCMS/MS, non-compartmental analysis; type: in vivo, human
advanced cancer = details: 5-day, every 12 hour dosing; highest dose level 1300 mg twice daily for five days; ref [4]; cited from earlier work
[2] = test system: myeloid and lymphoid leukemias; details: ref [2], cited from earlier work
[3] = test system: previously untreated AML or MDS; details: 600 mg bid, 21 day schedule, older patients with previously untreated AML or MDS; ref [5]; cited from earlier work
MDS = details: above 400 mg bid, 21-day bid dosing; ref [6]; cited from earlier work
solid tumor = details: 900 mg bid dose level, week-on, week-off; ref [7]; cited from earlier work
farnesyl transferase = details: correlative studies in patients; ref [6]–[8]; cited from earlier work
[4] = Day 5, 1200 mg bid, plasma, individual subjects 4-10

SMILES: Cn1cncc1[C@@](N)(c1ccc(Cl)cc1)c1ccc2c(c1)c(-c1cccc(Cl)c1)cc(=O)n2C [tipifarnib, Tipifarnib]
- Cmax [1, 4]: 1880 ng/mL and 2490 ng/mL and 1020 ng/mL
- Cmin [1, 4]: 97 ng/mL and 204 ng/mL and 234 ng/mL and 283 ng/mL and 166 ng/mL and 113 ng/mL and 101 ng/mL
- Tmax [1, 4]: 3.0 h and 3.1 h and 2.8 h
- Cmin ([1]; Day 5, 1400 mg bid, plasma, individual subjects 1-3): 781 ng/mL and 170 ng/mL
- tipifarnib accumulation between days 1 and 5 ([1]; at 1200 and 1400 mg bid): relatively modest
- AUC(0-t) ([1]; human, plasma, oral, 1200 mg, AUC12h, high, Day 1, 1200 mg, plasma): 15700 ng·h/mL
- AUC(0-t) ([1]; human, plasma, oral, 1200 mg, AUC12h, high, Day 5, 1200 mg bid, plasma): 14200 ng·h/mL
- AUC(0-t) ([1]; human, plasma, oral, 1200 mg, AUC12h, low, Day 1, 1200 mg, plasma): 3240 ng·h/mL
- AUC(0-t) ([1]; human, plasma, oral, 1200 mg, AUC12h, low, Day 5, 1200 mg bid, plasma): 4620 ng·h/mL
- AUC(0-t) ([1]; human, plasma, oral, 1200 mg, AUC12h, median, Day 1, 1200 mg, plasma): 4740 ng·h/mL
- AUC(0-t) ([1]; human, plasma, oral, 1200 mg, AUC12h, median, Day 5, 1200 mg bid, plasma): 7370 ng·h/mL
- Cmax ([1]; human, plasma, oral, 1200 mg, Cmax, high, Day 1, 1200 mg, plasma): 3160 ng/mL
- Cmax ([1]; human, plasma, oral, 1200 mg, Cmax, high, Day 5, 1200 mg bid, plasma): 2500 ng/mL
- Cmax ([1]; human, plasma, oral, 1200 mg, Cmax, low, Day 1, 1200 mg, plasma): 404 ng/mL
- Cmax ([1]; human, plasma, oral, 1200 mg, Cmax, low, Day 5, 1200 mg bid, plasma): 762 ng/mL
- Cmax ([1]; human, plasma, oral, 1200 mg, Cmax, median, Day 1, 1200 mg, plasma): 906 ng/mL
- Cmax ([1]; human, plasma, oral, 1200 mg, Cmax, median, Day 5, 1200 mg bid, plasma): 1210 ng/mL
- concentration at 5 day ([1]; human, plasma, oral, 1200 mg, Cmin, high, Day 5, 1200 mg bid, plasma): 283 ng/mL
- concentration at 5 day ([1]; human, plasma, oral, 1200 mg, Cmin, low, Day 5, 1200 mg bid, plasma): 97 ng/mL
- concentration at 5 day ([1]; human, plasma, oral, 1200 mg, Cmin, median, Day 5, 1200 mg bid, plasma): 166 ng/mL
- Tmax ([1]; human, plasma, oral, 1200 mg, Tmax, high, Day 1, 1200 mg, plasma): 3 h
- Tmax ([1]; human, plasma, oral, 1200 mg, Tmax, high, Day 5, 1200 mg bid, plasma): 5 h
- Tmax ([1]; human, plasma, oral, 1200 mg, Tmax, low, Day 1, 1200 mg, plasma): 2 h
- Tmax ([1]; human, plasma, oral, 1200 mg, Tmax, low, Day 5, 1200 mg bid, plasma): 1 h
- Tmax ([1]; human, plasma, oral, 1200 mg, Tmax, median, Day 1, 1200 mg, plasma): 2.1 h
- Tmax ([1]; human, plasma, oral, 1200 mg, Tmax, median, Day 5, 1200 mg bid, plasma): 3 h
- AUC(0-t) ([1]; human, plasma, oral, 1400 mg, AUC12h, high, Day 1, 1400 mg, plasma): 18700 ng·h/mL
- AUC(0-t) ([1]; human, plasma, oral, 1400 mg, AUC12h, high, Day 5, 1400 mg bid, plasma): 25600 ng·h/mL
- AUC(0-t) ([1]; human, plasma, oral, 1400 mg, AUC12h, low, Day 1, 1400 mg, plasma): 8950 ng·h/mL
- AUC(0-t) ([1]; human, plasma, oral, 1400 mg, AUC12h, low, Day 5, 1400 mg bid, plasma): 8710 ng·h/mL
- AUC(0-t) ([1]; human, plasma, oral, 1400 mg, AUC12h, median, Day 1, 1400 mg, plasma): 13800 ng·h/mL
- AUC(0-t) ([1]; human, plasma, oral, 1400 mg, AUC12h, median, Day 5, 1400 mg bid, plasma): 17100 ng·h/mL
- Cmax ([1]; human, plasma, oral, 1400 mg, Cmax, high, Day 1, 1400 mg, plasma): 4240 ng/mL
- Cmax ([1]; human, plasma, oral, 1400 mg, Cmax, high, Day 5, 1400 mg bid, plasma): 3890 ng/mL
- Cmax ([1]; human, plasma, oral, 1400 mg, Cmax, low, Day 1, 1400 mg, plasma): 1690 ng/mL
- Cmax ([1]; human, plasma, oral, 1400 mg, Cmax, low, Day 5, 1400 mg bid, plasma): 1370 ng/mL
- Cmax ([1]; human, plasma, oral, 1400 mg, Cmax, median, Day 1, 1400 mg, plasma): 3920 ng/mL
- Cmax ([1]; human, plasma, oral, 1400 mg, Cmax, median, Day 5, 1400 mg bid, plasma): 2630 ng/mL
- concentration at 12 h ([1]; human, plasma, oral, 1400 mg, Cmin, high, Day 1, 1400 mg, plasma): 329 ng/mL
- concentration at 5 day ([1]; human, plasma, oral, 1400 mg, Cmin, high, Day 5, 1400 mg bid, plasma): 781 ng/mL
- concentration at 5 day ([1]; human, plasma, oral, 1400 mg, Cmin, low, Day 5, 1400 mg bid, plasma): 170 ng/mL
- concentration at 5 day ([1]; human, plasma, oral, 1400 mg, Cmin, median, Day 5, 1400 mg bid, plasma): 476 ng/mL
- Tmax ([1]; human, plasma, oral, 1400 mg, Tmax, high, Day 1, 1400 mg, plasma): 3.2 h
- Tmax ([1]; human, plasma, oral, 1400 mg, Tmax, high, Day 5, 1400 mg bid, plasma): 5 h
- Tmax ([1]; human, plasma, oral, 1400 mg, Tmax, low, Day 1, 1400 mg, plasma): 2 h
- Tmax ([1]; human, plasma, oral, 1400 mg, Tmax, low, Day 5, 1400 mg bid, plasma): 3 h
- Tmax ([1]; human, plasma, oral, 1400 mg, Tmax, median, Day 1, 1400 mg, plasma): 3.1 h
- Tmax ([1]; human, plasma, oral, 1400 mg, Tmax, median, Day 5, 1400 mg bid, plasma): 4 h
- AUC(0-t) ([1]; human, plasma, oral, median AUC12h, remaining patients, day 1): 7580 ng·h/mL
- AUC(0-t) ([1]; human, plasma, oral, median AUC12h, remaining patients, day 5): 4320 ng·h/mL
- AUC(0-t) ([1]; human, plasma, oral, median AUC12h, two patients with decreased blasts, day 1): 16300 ng·h/mL
- AUC(0-t) ([1]; human, plasma, oral, median AUC12h, two patients with decreased blasts, day 5): 13200 ng·h/mL
- Cmax ([1]; human, plasma, oral, median Cmax, remaining patients, day 1): 1290 ng/mL
- Cmax ([1]; human, plasma, oral, median Cmax, remaining patients, day 5): 881 ng/mL
- Cmax ([1]; human, plasma, oral, median Cmax, two patients with decreased blasts, day 1): 2440 ng/mL
- Cmax ([1]; human, plasma, oral, median Cmax, two patients with decreased blasts, day 5): 2550 ng/mL
- fold higher median AUC and Cmax in the two patients with decreased blasts vs median of the non-responders ([1]; on both day 1 and day 5): 2–3 fold
- pharmacokinetic behavior (dose linearity) ([1]; present data taken together with earlier studies): linear up to doses as high as 1400 mg bid
- protocol-defined maximum tolerated dose (MTD) (advanced cancer): not achieved
- response at lowest dose level ([2]; 100 mg bid, 21-day continuous dosing): a CR at the lowest dose level
- overall response rate ([2]; 34 patients, 21-day continuous dosing schedule): 29%
- partial response, patients [3]: 10%
- dose limiting toxicities (MDS): headache, fatigue, confusion, and vision changes
- DLT (solid tumor): grade 3 fatigue
- duration of farnesyl transferase inhibition after administration (farnesyl transferase): seven days
